Reference: ChEMBL document CHEMBL6074671, “Discovery of Pyridine-2-Carboxamides Derivatives as Potent and Selective HPK1 Inhibitors for the Treatment of Cancer” (J Med Chem, 2024)
≈ marks a conversion by molar mass, not a printed value.

Columns and labels:
[1] = molecular target: Proto-oncogene tyrosine-protein kinase receptor Ret (Homo sapiens, UniProt P07949); assay: Inhibition of RET (unknown origin)
in vivo [2] = conditions: Sprague-Dawley, rat, plasma, iv, 1 mg/kg
Description: Clearance in Sprague-Dawley rat plasma at 1 mg/kg, iv

[3] = molecular target: Serine/threonine-protein kinase 3 (Homo sapiens, UniProt Q13188); assay: Inhibition of MST2 (unknown origin)
[4] = molecular target: Non-receptor tyrosine-protein kinase TYK2 (Homo sapiens, UniProt P29597); assay: Inhibition of TYK2 (unknown origin)
[5] = Toxicity in C57BL/6 mouse implanted with mouse MC38 cells assessed as increase in survival at low dose, po BID measured after 12 days in presence of anti-PD-1; assay type: organism-based; conditions: in vivo, 288 h, time 12 day
[6] = molecular target: Mitogen-activated protein kinase kinase kinase kinase 1 (Homo sapiens, UniProt Q92918); assay: Inhibition of HPK1 in human PBMC cells assessed as IL-2 level pretreated for 4 hrs followed by anti-CD3/CD28 stimulation for 20 mins by HTRF method; assay type: cell-based
[7] = Toxicity in C57BL/6 mouse implanted with mouse MC38 cells assessed as effect on body weight loss at high dose, po BID measured after 12 days; assay type: organism-based; conditions: in vivo, 288 h, time 12 day
[8] = Dose normalized AUC (0 to 24 hrs) in Sprague-Dawley rat at 10 mg/kg, po; assay type: ADME, organism-based; conditions: in vivo
[9] = Oral bioavailability in Balb/c mouse at 10 mg/kg; assay type: ADME, organism-based; conditions: in vivo
in vivo [10] = conditions: cynomolgus monkey, po, 2 mg/kg
Description: Half life in Cynomolgus monkey at 2 mg/kg, po

[11] = Toxicity in C57BL/6 mouse implanted with mouse MC38 cells assessed as increase in survival at low dose, po BID measured after 12 days; assay type: organism-based; conditions: in vivo, 288 h, time 12 day
Cytochrome P450 2D6 = Cytochrome P450 2D6 (Homo sapiens, UniProt P10635); assay: Inhibition of CYP2D6 in human liver microsomes using O-demethylation as substrate incubated for 10 mins in presence of NADPH by LC-MS/MS analysis; assay type: ADME, Microsome
[12] = molecular target: Serine/threonine-protein kinase PLK4 (Homo sapiens, UniProt O00444); assay: Inhibition of PLK4 (unknown origin)
[13] = molecular target: Mitogen-activated protein kinase kinase kinase kinase 4 (Homo sapiens, UniProt O95819); assay: Inhibition of catalytic domain N-terminal GST tagged human MAP4K4 (1 to 328 residues) expressed in insect Sf21 cells
in vivo [14] = conditions: Beagle, dog, plasma, iv, 1 mg/kg
Description: Clearance in Beagle dog plasma at 1 mg/kg, iv

in vivo [15] = conditions: Balb/c, mouse, iv, 1 mg/kg
Description: Volume of distribution in Balb/c mouse at 1 mg/kg, iv

[16] = Solubility in compound in FessIF at pH 5.0 incubated for 24 hrs by HPLC-UV analysis; assay type: physicochemical
[17] = Permeability of the compound in human Caco-2 cells measured after 90 mins by UPLC-MS/MS analysis; assay type: ADME, cell-based; conditions: read-out: permeability
[18] = Efflux ratio in human Caco-2 cells; assay type: ADME, cell-based
[19] = Plasma protein binding in mouse assessed as unbound fraction at 2 uM incubated for 4 hrs by LC-MS/MS analysis; assay type: ADME, cell-free
MC-38 [20] = assay: Synergistic antitumor activity against mouse MC38 cells implanted in C57BL/6 mouse model assessed as CDI value at low dose, po BID measured after 12 days in presence of anti-PD-1; assay type: functional; conditions: time 12 day
[21] = Toxicity in C57BL/6 mouse implanted with mouse MC38 cells assessed as increase in survival at high dose, po BID measured after 12 days in presence of anti-PD-1; assay type: organism-based; conditions: in vivo, 288 h, time 12 day
[22] = molecular target: Mitogen-activated protein kinase kinase kinase kinase 2 (Homo sapiens, UniProt Q12851); assay: Inhibition of human recombinant full length GST tagged N-terminal MAP4K2 (1 to 820 end residues) expressed in insect Sf21 cells
[23] = molecular target: Tyrosine-protein kinase Fyn (Homo sapiens, UniProt P06241); assay: Inhibition of FYN (unknown origin)
MC-38 [24] = assay: Antitumor activity against mouse MC38 cells implanted in C57BL/6 mouse model assessed as tumor growth inhibition at 12 mg/kg, po BID measured after 12 days relative to control; assay type: functional; conditions: MC-38, 288 h, time 12 day, read-out: TGI
Misshapen-like kinase 1 = Misshapen-like kinase 1 (Homo sapiens, UniProt Q8N4C8); assay: Inhibition of catalytic domain human GST-tagged N-terminal MAP4K6 (1 to 314 residues) expressed in insect Sf21 cells
[25] = molecular target: Serine/threonine-protein kinase PAK 2 (Homo sapiens, UniProt Q13177); assay: Inhibition of PAK2 (unknown origin)
in vivo [26] = conditions: Beagle, dog, po, 2 mg/kg
Description: Half life in Beagle dog at 2 mg/kg, po

[27] = Genotoxicity in Salmonella typhimurium TA100 incubated for 48 to 72 hrs in presence of S9 fraction by AMES test; assay type: toxicity, subcellular; conditions: salmonella enterica subsp. enterica serovar typhimurium, time 48-72 hrs

Chain of Tyrosine-protein kinase Fyn (P06241 whole entry): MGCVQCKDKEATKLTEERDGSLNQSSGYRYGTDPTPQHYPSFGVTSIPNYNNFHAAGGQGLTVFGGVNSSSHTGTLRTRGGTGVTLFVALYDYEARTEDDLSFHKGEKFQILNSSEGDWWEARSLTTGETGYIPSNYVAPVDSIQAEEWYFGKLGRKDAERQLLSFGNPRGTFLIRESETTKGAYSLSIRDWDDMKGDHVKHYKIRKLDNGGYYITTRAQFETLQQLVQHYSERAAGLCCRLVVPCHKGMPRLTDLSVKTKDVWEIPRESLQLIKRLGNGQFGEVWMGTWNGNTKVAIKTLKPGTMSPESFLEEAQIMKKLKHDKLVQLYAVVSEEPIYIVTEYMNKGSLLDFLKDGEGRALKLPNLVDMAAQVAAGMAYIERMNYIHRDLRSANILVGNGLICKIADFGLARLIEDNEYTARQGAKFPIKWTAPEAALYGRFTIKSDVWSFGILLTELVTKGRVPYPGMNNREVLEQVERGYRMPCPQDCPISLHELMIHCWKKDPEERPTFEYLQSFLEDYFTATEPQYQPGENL
Chain of Serine/threonine-protein kinase PAK 2 (Q13177 whole entry): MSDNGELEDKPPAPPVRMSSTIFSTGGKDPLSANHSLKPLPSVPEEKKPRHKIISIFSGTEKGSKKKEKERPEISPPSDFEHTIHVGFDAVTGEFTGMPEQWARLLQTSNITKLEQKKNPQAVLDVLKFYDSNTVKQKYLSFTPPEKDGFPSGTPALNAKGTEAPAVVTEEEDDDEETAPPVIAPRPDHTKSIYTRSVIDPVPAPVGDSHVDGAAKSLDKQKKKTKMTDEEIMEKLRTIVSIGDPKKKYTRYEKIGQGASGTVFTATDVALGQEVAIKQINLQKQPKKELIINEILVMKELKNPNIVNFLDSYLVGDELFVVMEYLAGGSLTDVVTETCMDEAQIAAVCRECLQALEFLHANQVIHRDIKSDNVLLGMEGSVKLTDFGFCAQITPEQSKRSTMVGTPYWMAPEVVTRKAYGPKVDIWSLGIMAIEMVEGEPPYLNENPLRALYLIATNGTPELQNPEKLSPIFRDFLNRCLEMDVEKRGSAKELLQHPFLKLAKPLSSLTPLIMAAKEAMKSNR
Chain of Mitogen-activated protein kinase kinase kinase kinase 1 (Q92918 whole entry): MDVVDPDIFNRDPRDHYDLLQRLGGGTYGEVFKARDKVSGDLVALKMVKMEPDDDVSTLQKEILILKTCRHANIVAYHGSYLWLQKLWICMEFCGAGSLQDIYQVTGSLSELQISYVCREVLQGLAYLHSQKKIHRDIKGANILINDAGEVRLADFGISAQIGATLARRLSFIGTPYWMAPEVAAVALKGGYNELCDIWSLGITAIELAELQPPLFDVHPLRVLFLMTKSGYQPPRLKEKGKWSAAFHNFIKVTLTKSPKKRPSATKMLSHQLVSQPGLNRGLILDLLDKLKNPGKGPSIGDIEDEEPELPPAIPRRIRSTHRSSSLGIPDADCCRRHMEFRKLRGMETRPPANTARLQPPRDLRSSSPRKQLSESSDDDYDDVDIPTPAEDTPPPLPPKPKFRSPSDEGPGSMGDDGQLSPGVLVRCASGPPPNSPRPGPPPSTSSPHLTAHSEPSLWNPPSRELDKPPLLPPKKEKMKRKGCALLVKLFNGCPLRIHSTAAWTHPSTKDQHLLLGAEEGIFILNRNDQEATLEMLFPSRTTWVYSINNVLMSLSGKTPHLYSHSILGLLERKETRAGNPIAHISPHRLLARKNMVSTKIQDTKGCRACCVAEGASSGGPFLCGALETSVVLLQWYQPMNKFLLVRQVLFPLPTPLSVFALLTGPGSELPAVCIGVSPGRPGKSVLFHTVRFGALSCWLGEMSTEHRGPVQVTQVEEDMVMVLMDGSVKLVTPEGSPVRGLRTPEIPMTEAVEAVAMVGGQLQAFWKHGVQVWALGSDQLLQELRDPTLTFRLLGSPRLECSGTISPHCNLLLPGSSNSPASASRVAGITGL
Chain of Proto-oncogene tyrosine-protein kinase receptor Ret (P07949 whole entry): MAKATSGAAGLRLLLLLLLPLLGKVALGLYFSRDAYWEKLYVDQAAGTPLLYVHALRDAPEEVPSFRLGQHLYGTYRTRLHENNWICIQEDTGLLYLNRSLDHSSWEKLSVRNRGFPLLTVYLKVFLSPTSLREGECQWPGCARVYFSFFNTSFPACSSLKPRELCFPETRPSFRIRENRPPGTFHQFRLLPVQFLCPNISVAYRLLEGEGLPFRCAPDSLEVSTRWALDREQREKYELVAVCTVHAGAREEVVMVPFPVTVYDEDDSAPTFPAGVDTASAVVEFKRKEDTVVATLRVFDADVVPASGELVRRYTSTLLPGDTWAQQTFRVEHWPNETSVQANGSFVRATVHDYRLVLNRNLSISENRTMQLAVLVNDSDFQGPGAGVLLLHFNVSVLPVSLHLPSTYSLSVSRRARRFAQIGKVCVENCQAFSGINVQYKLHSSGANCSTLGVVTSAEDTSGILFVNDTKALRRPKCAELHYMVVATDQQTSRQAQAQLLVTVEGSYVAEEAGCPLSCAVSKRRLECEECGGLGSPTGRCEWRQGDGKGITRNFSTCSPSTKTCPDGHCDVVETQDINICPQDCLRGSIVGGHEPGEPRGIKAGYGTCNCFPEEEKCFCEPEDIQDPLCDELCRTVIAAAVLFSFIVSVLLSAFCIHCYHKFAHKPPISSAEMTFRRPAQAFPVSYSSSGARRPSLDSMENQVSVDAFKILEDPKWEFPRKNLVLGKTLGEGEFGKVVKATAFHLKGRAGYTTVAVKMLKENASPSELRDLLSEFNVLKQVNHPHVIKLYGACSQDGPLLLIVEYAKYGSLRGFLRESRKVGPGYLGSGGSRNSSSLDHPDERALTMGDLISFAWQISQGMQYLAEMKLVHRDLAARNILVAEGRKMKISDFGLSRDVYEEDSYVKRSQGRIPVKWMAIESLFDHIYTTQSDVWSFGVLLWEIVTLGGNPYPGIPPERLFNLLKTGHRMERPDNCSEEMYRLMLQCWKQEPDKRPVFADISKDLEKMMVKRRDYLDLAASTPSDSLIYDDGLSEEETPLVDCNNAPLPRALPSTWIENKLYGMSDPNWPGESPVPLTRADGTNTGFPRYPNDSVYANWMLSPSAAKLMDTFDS
Chain of Non-receptor tyrosine-protein kinase TYK2 (P29597 whole entry): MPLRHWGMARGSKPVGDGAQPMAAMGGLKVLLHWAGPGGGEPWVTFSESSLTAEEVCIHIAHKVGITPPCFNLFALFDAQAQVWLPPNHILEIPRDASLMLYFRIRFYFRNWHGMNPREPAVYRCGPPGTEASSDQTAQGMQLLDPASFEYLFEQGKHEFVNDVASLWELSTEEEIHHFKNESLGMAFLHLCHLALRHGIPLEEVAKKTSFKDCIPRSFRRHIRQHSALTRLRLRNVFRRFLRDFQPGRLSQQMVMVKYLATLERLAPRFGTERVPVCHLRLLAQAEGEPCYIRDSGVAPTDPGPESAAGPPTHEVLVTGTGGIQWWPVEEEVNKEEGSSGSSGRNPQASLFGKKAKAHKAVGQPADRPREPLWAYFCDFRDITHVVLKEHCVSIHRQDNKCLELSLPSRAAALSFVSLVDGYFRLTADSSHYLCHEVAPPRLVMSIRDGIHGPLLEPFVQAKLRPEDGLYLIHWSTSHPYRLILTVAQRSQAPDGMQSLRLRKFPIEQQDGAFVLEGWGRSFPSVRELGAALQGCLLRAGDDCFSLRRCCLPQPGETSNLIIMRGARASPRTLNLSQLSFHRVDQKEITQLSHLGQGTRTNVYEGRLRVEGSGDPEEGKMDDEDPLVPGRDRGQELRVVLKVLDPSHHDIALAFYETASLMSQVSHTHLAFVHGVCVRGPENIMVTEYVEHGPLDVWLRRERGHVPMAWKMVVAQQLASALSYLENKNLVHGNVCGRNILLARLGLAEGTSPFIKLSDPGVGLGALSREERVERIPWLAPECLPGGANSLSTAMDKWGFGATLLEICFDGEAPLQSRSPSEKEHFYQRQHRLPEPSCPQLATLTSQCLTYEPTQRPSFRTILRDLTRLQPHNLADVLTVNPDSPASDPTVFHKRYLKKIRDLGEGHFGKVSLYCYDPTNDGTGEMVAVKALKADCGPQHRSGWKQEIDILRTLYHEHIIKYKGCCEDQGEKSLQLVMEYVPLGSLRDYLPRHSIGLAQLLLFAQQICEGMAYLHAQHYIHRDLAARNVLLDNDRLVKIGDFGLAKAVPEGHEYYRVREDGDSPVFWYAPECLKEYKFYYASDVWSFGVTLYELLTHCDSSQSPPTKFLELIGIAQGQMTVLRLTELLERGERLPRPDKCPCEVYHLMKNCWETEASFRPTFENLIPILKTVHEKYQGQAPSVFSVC
Chain of Mitogen-activated protein kinase kinase kinase kinase 2 (Q12851 whole entry): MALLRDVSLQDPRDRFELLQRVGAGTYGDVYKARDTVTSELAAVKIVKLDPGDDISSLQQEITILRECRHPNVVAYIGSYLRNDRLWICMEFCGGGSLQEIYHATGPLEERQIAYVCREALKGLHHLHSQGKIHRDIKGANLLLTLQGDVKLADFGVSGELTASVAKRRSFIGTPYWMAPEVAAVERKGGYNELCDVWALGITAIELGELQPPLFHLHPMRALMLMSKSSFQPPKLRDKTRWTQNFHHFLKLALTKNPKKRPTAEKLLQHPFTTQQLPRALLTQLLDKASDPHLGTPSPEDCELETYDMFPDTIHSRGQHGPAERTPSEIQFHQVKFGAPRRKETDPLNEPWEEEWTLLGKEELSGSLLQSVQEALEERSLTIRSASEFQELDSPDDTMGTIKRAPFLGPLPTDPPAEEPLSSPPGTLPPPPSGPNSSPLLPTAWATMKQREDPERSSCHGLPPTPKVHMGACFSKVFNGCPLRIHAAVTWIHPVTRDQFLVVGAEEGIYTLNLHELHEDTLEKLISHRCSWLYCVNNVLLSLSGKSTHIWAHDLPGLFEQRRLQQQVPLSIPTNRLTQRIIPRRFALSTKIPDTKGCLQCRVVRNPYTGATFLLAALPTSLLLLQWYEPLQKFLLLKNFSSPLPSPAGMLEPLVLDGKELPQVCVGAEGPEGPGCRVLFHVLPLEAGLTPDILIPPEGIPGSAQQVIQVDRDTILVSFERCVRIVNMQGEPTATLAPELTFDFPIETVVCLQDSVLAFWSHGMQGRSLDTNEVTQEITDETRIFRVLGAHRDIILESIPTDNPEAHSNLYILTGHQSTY

**Q.** What does the source list for COc1cc(Nc2ccc3c(n2)CN(C)C32CCN(C3COC3)CC2)c(C(N)=O)nc1-c1cccc2c1ncn2C?
**A.** IC50 [1]: 2990 nM; clearance (in vivo [2]): 9.67 mL/min/kg; IC50 [3]: > 10000 nM; IC50 [4]: > 10000 nM; Activity [5]: Non-toxic; EC50 [6]: 43.3 nM; Activity [7]: Non-toxic; AUC/dose [8]: 593.6 ng·h/mL; bioavailability [9]: 62.5%; half-life (in vivo [10]): 8.73 h; Activity [11]: Non-toxic; IC50 (Cytochrome P450 2D6): > 50000 nM; IC50 [12]: > 10000 nM; IC50 [13]: 377 nM; clearance (in vivo [14]): 11.4 mL/min/kg; Vd (in vivo [15]): 2.13 L/kg; solubility at 24 h [16]: 134 µM (≈ 74.3 µg/mL); Papp at […] [17]: 4.2 ×10⁻⁶ cm/s; efflux ratio [18]: 8.4; fraction unbound at 4 h, 2 µM [19]: 0.079; Activity (MC-38 [20]): 0.78; Activity [21]: Non-toxic; IC50 [22]: 1740 nM; IC50 [23]: > 10000 nM; inhibition in vivo at 12 mg/kg (MC-38 [24]): 59.4%; IC50 (Misshapen-like kinase 1): 116 nM; IC50 [25]: > 10000 nM; half-life (in vivo [26]): 7.65 h; Activity [27]: Non-toxic
